Entries after “also recorded” stand apart in the source; their conditions may differ.
What was measured:
Assay type in all cases: cell-based
BRD4 [1] = biological target: T1, BRD4 (Homo sapiens, UniProt O60885); assay: Summary of BRD4 degradation by CURE-PRO pairs, estimated from Western Blot or WES; parameters: endogenous in cells; details: Table 1, aryl-boronic acid BRD4 ligand + 8047
Procedure, shortened: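 Namalwa, Ramos, HeLa, MCF7, HT29 or HCT116 cells treated 24 h with compounds in DMSO; RIPA lysates analysed by Western blot (ECL) or capillary WES immunodetection. Check mark denotes 30% to 70% or higher protein degradation.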

BRD4 [2] = biological target: T1, BRD4; assay: CURE-PRO-mediated BRD4 degradation in HeLa cells, Western blot; parameters: endogenous in cells; host or cells: HeLa; details: 24 h
Procedure, shortened: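 HeLa cells (2.5×10^6) treated 24 h with DMSO-solubilized compounds, degrader pairs combined 1:1, at 1 nM-1 μM, 1-10 μM, 10 μM or 10 and 100 μM each depending on series. RIPA lysates (10-20 μg protein) run on SDS-PAGE and immunoblotted for BRD4 with ECL detection.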

Namalwa cells = assay: CellTiter-Glo cell viability, Namalwa cells; details: co-dosed 1:1 with CRBN ligand 8047, Namalwa, 72 h, 10 nM-10 μM
Procedure: CellTiter-Glo® 2.0 Cell Viability Assay (Promega) was carried out following the manufacturer's recommendations. Cells were seeded at a density of 1000 cells/well in a white 96 well plates (Corning, #3917) in a total volume of 100 μl with respective monomers, combinations of BRD ligands together with E3 ligase ligands or vehicle control treatment. After a 72 h incubation, 100 ul of the CellTiter-Glo® substrate was added per well and luminescence was read on a Spectramax M5 (Molecular Devices). Dose-response curves were generated using Graphpad Prism software.
Namalwa cells (1×10^4) were treated for 72 hours with the compounds solubilized in DMSO. Compounds were added at 10 nM-10 μM each. Cellular viability was determined using the CellTiter-Glo® Luminescent Cell Viability Assay (Promega) described above. FIG. 56 depicts the CURE-PRO-mediated loss of cellular viability for the BRD-E72 monomer (JQ1 derivatives comprising of boronic acid linkers), and the CRBN ligand, 8047 (a pomalidomide derivative comprising diol linkers) combined in a 1:1 ratio.

BRD4 [3] = biological target: T1, BRD4; assay: CURE-PRO-mediated BRD4 degradation in HeLa cells, WES capillary electrophoresis (ProteinSimple); parameters: endogenous in cells; host or cells: HeLa
Procedure: All cell lines were purchased from ATCC or DSMZ and grown at 37° C. with 5% CO2. Human HeLa cells were cultured in complete growth medium (Dulbecco's modified Eagle's medium (DMEM) supplemented with 10% FBS); MCF7 cells were cultured in complete growth medium (Dulbecco's modified Eagle's medium (DMEM) supplemented with 10% FBS and 0.01 mg/ml human recombinant insulin (Sigma Aldrich); Namalwa and Ramos cells were cultured in complete growth medium (RPMI 1640 medium supplemented with 10% FBS); HCT116 and HT29 cells were cultured in complete growth medium (McCoy's 5a Medium supplemented with 10% FBS). For cellular degradation of BRD4 studies cells were seeded in a 12-well plate at 70-80% confluency, allowed to attach overnight, and incubated with the indicated compounds for the indicated time. When indicated, a 15-minute pretreatment with 10 μM pomalidomide, 10 μM VHL298, 10 μM Nutlin3a, 1 μM MG-132 or 1 μM Carfilzomib was performed before the addition of CURE-PROs. For washout studies, after CURE-PRO treatment, media was aspirated and incubated with complete medium for the indicated time before lysis.
WES Simple analysis was performed on WES system (ProteinSimple-Biotechne) according to the manufacturer's instructions. Total protein concentrations of cell lysates were determined by the Pierce BCA kit (Thermo Fisher). 3 μL of 0.3 μg/μL of the protein lysate was loaded onto a 12- to 230-kDa WES assay plate (ProteinSimple) where 300 nL sample was withdrawn through a capillary, subjected to electrophoretic separation of proteins by size, and followed by the simultaneous, HRP-based detection of proteins using the Anti-Rabbit Detection Module (Proteinsimple: #DM-001). The electropherograms were checked then the automatic peak detection was manually corrected if it was required.
HeLa cells (2.5×10^6) were treated for 4-24 hours with the compounds solubilized in DMSO. After 4 hours, indicated points were washed and cells were left in full growth media. Compounds were added at 10 μM each. Standardized protein samples were electrophoresed and imaged as described in the WES ProteinSimple section above. FIGS. 44 and 45 depict the time-dependence of CURE-PRO-mediated BRD4 degradation with the BRD-E52 ligand (FIG. 44) and BRD-E72 ligand (FIG. 45), both JQ1 derivatives comprising of boronic acid linkers, and the CRBN binding ligands (8046, 8047, and 8066), pomalidomide derivatives comprising diol linkers.
HeLa cells (2.5×10^6) were treated for 24 hours with the compounds solubilized in DMSO. Compounds were added at 100 nM-10 μM each. Standardized protein samples were electrophoresed and imaged as described in the WES ProteinSimple section above. FIG. 46 depicts the concentration-dependence of CURE-PRO-mediated BRD4 degradation and the requirement for monomer dimerization.

caspase 3/7 = assay: Caspase-Glo 3/7 assay, Namalwa cells; details: 1:1 with CRBN ligand 8047, Namalwa, 24 h
Procedure: Caspase-glo® assay (Promega) was conducted following the manufacturer's recommendations. Cells were seeded at a density of 5000 cells/well in a white 96 well plates (Corning, #3917) in a total volume of 100 μl with respective monomers, combinations of BRD ligands together with E3 ligase ligands or vehicle control treatment. After a 24 h incubation, 100 μl of the […] substrate was added per well and luminescence was read on a Spectramax M5 (Molecular Devices).
Namalwa cells (5×10^4) were treated for 24 hours with the compounds solubilized in DMSO. FIG. 57 is a bar graph depiction of fold increase of apoptosis assessed via caspase 3/7 activity using the Caspase-Glo assay (Promega) described above.
Molm-13 (FIG. 76A) or Namalwa (FIG. 76B) cells (5×10^4) were treated for 24 hours with the compounds solubilized in DMSO in white 96 well plates (10 nM-10 μM solubilized in DMSO). FIG. 76 is a bar graph depiction of fold increase of apoptosis assessed via caspase 3/7 activity using the Caspase-Glo assay (Promega) described above.

CRBN = biological target: T2, CRBN (Homo sapiens, UniProt Q96SW2); assay: CURE-PRO-mediated CRBN degradation in HeLa cells, Western blot; details: 24 h
T2 construct: endogenous in cells; host or cells: HeLa
T2 sequence (Q96SW2 whole entry): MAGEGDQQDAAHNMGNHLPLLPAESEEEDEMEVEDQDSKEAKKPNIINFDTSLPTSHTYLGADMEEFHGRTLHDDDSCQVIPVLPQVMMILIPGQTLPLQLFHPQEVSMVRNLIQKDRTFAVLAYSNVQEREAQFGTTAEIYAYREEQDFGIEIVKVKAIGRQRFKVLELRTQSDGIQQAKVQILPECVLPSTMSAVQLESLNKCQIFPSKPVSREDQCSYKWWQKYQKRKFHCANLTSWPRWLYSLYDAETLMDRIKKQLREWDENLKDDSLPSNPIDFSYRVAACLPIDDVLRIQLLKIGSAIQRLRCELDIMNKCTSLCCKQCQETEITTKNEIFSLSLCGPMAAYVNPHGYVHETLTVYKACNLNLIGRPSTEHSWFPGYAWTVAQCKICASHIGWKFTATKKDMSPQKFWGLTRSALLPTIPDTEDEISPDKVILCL
Procedure: Namalwa, Ramosm HeLa, MCF7, or HT29 HCT116 cells (2.5-3×10^6) were treated for 24 hours with the indicated compounds solubilized in DMSO. The cells were washed in ice-cold PBS and were then lysed in RIPA lysis buffer (150 mM NaCl, 5 mM EDTA, 1% NP-40, 0.5% sodium deoxycholate, 0.1% SDS, 50 mM Tris, pH 8.0.) with Roche protease inhibitor complete cocktail and phosphatase inhibitors (10 mM sodium fluoride, 10 mM sodium pyrophosphate, 1 mM sodium orthovanadate and 20 mM β-glycerophosphate). The total protein concentrations were determined by Bradford Protein Assay (Pierce) and 10-20 μg of protein was loaded onto 4-15% Tris-Glycine gradient gels (Biorad). After standard gel electrophoresis, the separated proteins were transferred to PVDF membrane by wet transfer. The immunoblots were then blocked for 1 hour in 5% skim milk in TBST or 5% BSA in TBST, according to manufacturer's instructions, before an overnight incubation at 4° C. with indicated antibodies and membranes. […] Signal was detected with ECL Western Blotting Substrate (Pierce) and X-ray film processed with a Konica SRX-101 X-ray film processor or captured by Bio-Rad's Chemidoc Imaging system. […]

HT29 cells = assay: MTT toxicity of E3 ligase CURE-PRO monomers, HT29 cells; details: monomer alone, HT29, 10 nM-30 μM, 24 h
Procedure: (§1) CURE-PRO ligands for the E3 ubiquitin ligases were assessed for toxicity by MTT assays as described above. CURE-PRO monomers (10 nM-30 μM) were solubilized in DMSO and added in triplicate to cells (1×10^5 cells/well) seeded in 96 well plates on the previous day. HCT116 (FIG. 105A), MCF7 (FIG. 105B), and HT29 cells (FIG. 105C) were treated with the CURE-PRO monomers for 24 h.

HCT116 cells = assay: MTT toxicity of E3 ligase CURE-PRO monomers, HCT116 cells; details: monomer alone, HCT116, 10 nM-30 μM, 24 h
Procedure: as §1

CCNC(=O)C[C@@H]1N=C(c2ccc(Cl)cc2)c2cc(-c3cccc(B(O)O)c3)ccc2-n2c(C)nnc21 [BRD-E72, (3-((4S)-6-(4-chlorophenyl)-4-(2-(ethylamino)-2-oxoethyl)-1-methyl-4H-benzo[f][1,2,4]triazolo[4,3-a][1,4]diazepin-8-yl)phenyl)boronic acid]
Degradation of BRD4, combination with CRBN ligand 8047 (BRD4 [1]): √ (A black check mark indicates efficacy of 30% to 70% or higher protein degradation)
BRD4 degradation after pomalidomide preincubation (BRD4 [2]; 1:1 with 8047, 10 μM, pomalidomide preincubated 15 min at equimolar concentration): inhibition of CURE-PRO-mediated BRD4 degradation
BRD4 degradation (BRD4 [2]; BRD ligand with pomalidomide (no 8047), HeLa, 10 μM): failed to induce BRD4 degradation
BRD4 degradation (BRD4 [2]; co-treated 1:1 with CRBN ligand 8047, HeLa, 10 μM each): CURE-PRO-mediated degradation of BRD4
loss of cellular viability versus monomer alone (Namalwa cells): an increase in the loss of viability compared to monomer treatment alone; also recorded: marked loss in cell viability
sustained BRD4 degradation after drugs are washed out (BRD4 [3]; co-dosed with 8047, 10 μM each, washed after 4 h): up to 8 h
BRD4 degradation, time course (BRD4 [3]; co-dosed with CRBN ligand 8047, HeLa, 10 μM each, 4-24 h): marked BRD4 degradation after 4 h
caspase 3/7 activation (caspase 3/7): demonstrates activation of caspase 3/7; also recorded: marked caspase activation

CC(C)(O)C(=O)C(=O)NCc1cccc2c1C(=O)N(C1CCC(=O)NC1=O)C2=O (centres unmarked) [compound 8065]
concentrations at which CRBN degradation is noted (CRBN): 10 to 100 µM

COc1ccc(C2=N[C@@H](c3ccc(Cl)cc3)[C@@H](c3ccc(Cl)cc3)N2C(=O)N2CCN(CCNC(=O)c3cccc(B(O)O)c3)C(=O)C2)c(OC(C)C)c1 [compound 8312, (3-((2-(4-((4S,5R)-4,5-bis(4-chlorophenyl)-2-(2-isopropoxy-4-methoxyphenyl)-4,5-dihydro-1H-imidazole-1-carbonyl)-2-oxopiperazin-1-yl)ethyl)carbamoyl)phenyl)boronic acid]
loss of viability (MTT) (HT29 cells): loss of viability only noted at higher concentrations (30 μM); also recorded: Toxicity at higher concentrations
loss of viability (MTT) (HCT116 cells): loss of viability only noted at higher concentrations (30 μM); also recorded: Toxicity at higher concentrations
